According to patent US20220073448A1, “METHOD FOR SYNTHESIZING CARBOXY-CONTAINING ANTHRAQUINONE DERIVATIVE, CARBOXY-CONTAINING ANTHRAQUINONE DERIVATIVE PREPARED THEREBY, AND BATTERY SYSTEM COMPRISING SAME” (CHINA SALT JINTAN CO., LTD., priority 2019, published 2022):

Assay: Cyclic voltammetry (CV), three-electrode system, glassy carbon working electrode, Ag/AgCl reference electrode
Type: physicochemical
Details: 2 mM in potassium hydroxide aqueous solution at pH=14, scan rate 20 mV/s, in V
Source text: In the cyclic voltammetry test of the electric pair, the CS Series electrochemical workstation from Wuhan Corrtest Instruments Corp., Ltd. was used to test the electrochemical performance of the organic electric pair with a three-electrode system. The working electrode was a glassy carbon electrode (Tianjin IDA Hengsheng Co.), the reference electrode was a Ag/AgCl electrode, the counter electrode was a platinum electrode, the scan range of the electric pair of positive electrode and negative electrode was −1.0 to 1.0 V, and the scan rate was 20 mV·s^−1.
A 1-[N-(5-carboxybutylacyl)]aminoanthraquinone solution (at a concentration of 2 mM, in a potassium hydroxide aqueous solution at pH=14) was investigated by cyclic voltammetry (CV).
A 1-[N-(6-carboxypentylacyl)]aminoanthraquinone solution (at a concentration of 2 mM, in a potassium hydroxide aqueous solution at pH=14) was investigated by cyclic voltammetry (CV).
A 1-[N-(7-carboxyhexylacyl)]aminoanthraquinone solution (at a concentration of 2 mM, in a potassium hydroxide aqueous solution at pH=14) was investigated by cyclic voltammetry (CV).
A 1-[N-(8-carboxyheptylacyl)]aminoanthraquinone solution (at a concentration of 2 mM, in a potassium hydroxide aqueous solution at pH=14) was investigated by cyclic voltammetry (CV).

redox peak in CV curve | redox peak in CV curve (more negative) | Molecule
~−0.60 | ~−0.68 | O=C(O)CCCCCCCC(=O)Nc1cccc2c1C(=O)c1ccccc1C2=O [1-[N-(8-carboxyheptylacyl)]aminoanthraquinone]
~−0.60 | ~−0.66 | O=C(O)CCCCC(=O)Nc1cccc2c1C(=O)c1ccccc1C2=O [1-[N-(6-carboxypentylacyl)]aminoanthraquinone]
~−0.60 | ~−0.67 | 1-[N-(7-carboxyhexylacyl)]aminoanthraquinone
~−0.60 | ~−0.65 | O=C(O)CCCCC(=O)Nc1cccc2c1C(=O)c1ccccc1C2=O [1-[N-(5-carboxybutylacyl)]aminoanthraquinone]
